Data published in patent US4929751A, “Vinyl tricarbonyl compounds and methods of making the same” (Yale University, priority 1987, dated 1990).
Read-outs that look alike come from different tables or passages of the source.

Legend:
Assay in all cases: growth inhibition of tumor cell line
Type in all cases: cell-based
K562 (leukemia) = settings: Homo sapiens
Description: (§1) t-Butyl 2,3-dioxo-pent-4-enoate hydrate (A) was contacted with various cell lines as indicated on Table 1 hereinbelow in the column designated as "CELL" or "TUMOR". […]
(§2) Table 1 reports and illustrates the results obtained by testing t-butyl 2,3-dioxo-pent-4-enoate hydrate. The concentration of this compound found to inhibit the growth of each cell line listed under "CELL" by 50% is reported under "LOG(IC50)" as the logarithm of the concentration. The units of concentration are either molarity in which case an "M" is shown in parentheses next to the LOG(IC50) label, or micrograms per ml, in which case a "W" (for weight) is shown in parenthesis. The cell line names are grouped by disease type and the disease type names are listed on the far left.

CAKI-1 (renal) = settings: Homo sapiens
Description: as §1, §2

P388 = settings: Mus musculus
Description: as §1, §2

[1] = system: H460 (nonsmall cell lung cancer); settings: Homo sapiens, NCI-H460, logarithm of the concentration inhibiting growth by 50%
Description: as §1, §2

[2] = system: H125 (nonsmall cell lung cancer); settings: Homo sapiens, NCI-H125
Description: as §1, §2

DLD-1 (colon) = settings: Homo sapiens
Description: as §1, §2

[3] = system: H69 (small cell lung cancer)
Description: as §1, §2

A704 (renal) = settings: Homo sapiens
Description: as §1, §2

[4] = system: EKV-X (nonsmall cell lung cancer); settings: Homo sapiens, EKVX
Description: as §1, §2

OVCAR-4 (ovarian) = settings: Homo sapiens, logarithm of the concentration inhibiting growth by 50%
Description: as §1, §2

[5] = system: SNB-44 (central nervous system)
Description: as §1, §2

[6] = system: SK-MES-1 (nonsmall cell lung cancer); settings: Homo sapiens, SK-MES1, logarithm of the concentration inhibiting growth by 50%
Description: as §1, §2

[7] = system: H522 (nonsmall cell lung cancer); settings: Homo sapiens, NCI-H522
Description: as §1, §2

[8] = system: TE-671 (central nervous system); settings: Homo sapiens
Description: as §1, §2

LOVO (colon) = settings: Homo sapiens
Description: as §1, §2

SK-MEL2 (melanoma) = settings: Homo sapiens
Description: as §1, §2

SW620 (colon) = settings: Homo sapiens
Description: as §1, §2

P388/ADR = settings: Mus musculus
Description: as §1, §2

OVCAR-8 (ovarian) = settings: Homo sapiens
Description: as §1, §2

CCRF-CEM (leukemia) = settings: Homo sapiens
Description: as §1, §2

[9] = system: H322 (nonsmall cell lung cancer); settings: NCI-H322
Description: as §1, §2

[10] = system: MCF-7/ADR (resistant breast cancer); settings: Homo sapiens
Description: as §1, §2

MCF-7 (breast) = settings: Homo sapiens
Description: as §1, §2

OVCAR-3 (ovarian) = settings: Homo sapiens
Description: as §1, §2

RPMI-7951 (melanoma) = settings: Homo sapiens
Description: as §1, §2

MOLT-4 (LEU) = settings: Homo sapiens, status R (not acceptable test)
Description: as §1, §2

[11] = system: H23 (nonsmall cell lung cancer)
Description: as §1, §2

[12] = logarithm of the concentration inhibiting growth by 50%, read-out: LOG(IC50) (converted)

Compound: C=CC(=O)C(O)(O)C(=O)OC(C)(C)C [t-butyl 2,3-dioxo-pent-4-enoate hydrate]
- IC90 (K562 (leukemia)): 225 µM
- IC50 (K562 (leukemia); [12]): 100 µM
- IC50 (K562 (leukemia); read-out: IC-50 MEAN): 90.3 µM
- IC90 (CAKI-1 (renal)): 202 µM
- IC50 (CAKI-1 (renal); [12]): 50.1 µM
- IC50 (CAKI-1 (renal); read-out: IC-50 MEAN): 64.9 µM
- IC90 (P388): 248 µM
- IC50 (P388; [12]): 100 µM
- IC50 (P388; read-out: IC-50 MEAN): 114 µM
- IC50 [1]: > 251 µM
- IC50 ([2]; H125, logarithm of the concentration inhibiting growth by 50%, read-out: LOG(IC50) (converted)): 50.1 µM
- IC50 ([2]; read-out: IC-50 MEAN): 73.3 µM
- IC90 (DLD-1 (colon)): 187 µM
- IC50 (DLD-1 (colon); [12]): 39.8 µM
- IC50 (DLD-1 (colon); read-out: IC-50 MEAN): 38.4 µM
- IC50 ([3]; H69, logarithm of the concentration inhibiting growth by 50%, read-out: LOG(IC50) (converted)): 100 µM
- IC90 ([3]; Homo sapiens, NCI-H69): 269 µM
- IC50 ([3]; Homo sapiens, NCI-H69, read-out: IC-50 MEAN): 95.5 µM
- IC90 (A704 (renal)): 229 µM
- IC50 (A704 (renal); [12]): 50.1 µM
- IC50 (A704 (renal); read-out: IC-50 MEAN): 46.6 µM
- IC50 [4, 12]: 200 µM
- IC50 ([4]; read-out: IC-50 MEAN): 226 µM
- IC50 (OVCAR-4 (ovarian)): 251 µM
- IC90 ([5]; SNB44): 235 µM
- IC50 ([5]; SNB44, logarithm of the concentration inhibiting growth by 50%, read-out: LOG(IC50) (converted)): 100 µM
- IC50 ([5]; SNB44, read-out: IC-50 MEAN): 94 µM
- IC50 [6]: > 25.1 µM
- IC50 ([7]; H522, logarithm of the concentration inhibiting growth by 50%, read-out: LOG(IC50) (converted)): 15.8 µM
- IC50 ([7]; read-out: IC-50 MEAN): 14.3 µM
- IC90 [8]: 231 µM
- IC50 [8, 12]: 126 µM
- IC50 ([8]; read-out: IC-50 MEAN): 114 µM
- IC90 (LOVO (colon); LoVo): 262 µM
- IC50 (LOVO (colon); LoVo, read-out: IC-50 MEAN): 96.6 µM
- IC50 (LOVO (colon); LOVO, logarithm of the concentration inhibiting growth by 50%, read-out: LOG(IC50) (converted)): 100 µM
- IC90 (SK-MEL2 (melanoma); SK-MEL-2): 174 µM
- IC50 (SK-MEL2 (melanoma); SK-MEL-2, logarithm of the concentration inhibiting growth by 50%, read-out: LOG(IC50) (converted)): 79.4 µM
- IC50 (SK-MEL2 (melanoma); SK-MEL-2, read-out: IC-50 MEAN): 73.5 µM
- IC90 (SW620 (colon); SW-620): 234 µM
- IC50 (SW620 (colon); SW-620, logarithm of the concentration inhibiting growth by 50%, read-out: LOG(IC50) (converted)): 63.1 µM
- IC50 (SW620 (colon); SW-620, read-out: IC-50 MEAN): 58 µM
- IC90 (P388/ADR): 244 µM
- IC50 (P388/ADR; P388/AD, logarithm of the concentration inhibiting growth by 50%, read-out: LOG(IC50) (converted)): 126 µM
- IC50 (P388/ADR; read-out: IC-50 MEAN): 118 µM
- IC90 (OVCAR-8 (ovarian)): 263 µM
- IC50 (OVCAR-8 (ovarian); [12]): 126 µM
- IC50 (OVCAR-8 (ovarian); read-out: IC-50 MEAN): 114 µM
- IC50 (CCRF-CEM (leukemia); CCRF-CE, logarithm of the concentration inhibiting growth by 50%, read-out: LOG(IC50) (converted)): 7.94 µM
- IC50 (CCRF-CEM (leukemia); read-out: IC-50 MEAN): 8.05 µM
- IC90 [9]: 246 µM
- IC50 ([9]; H322, logarithm of the concentration inhibiting growth by 50%, read-out: LOG(IC50) (converted)): 50.1 µM
- IC50 ([9]; read-out: IC-50 MEAN): 48.7 µM
- IC50 ([10]; NCI/ADR-RES, MCF-7/ADR, read-out: IC-50 MEAN): 96 µM
- IC50 ([10]; MCF-7/A, logarithm of the concentration inhibiting growth by 50%, read-out: LOG(IC50) (converted)): 100 µM
- IC90 (MCF-7 (breast); MCF7): 232 µM
- IC50 (MCF-7 (breast); MCF7, logarithm of the concentration inhibiting growth by 50%, read-out: LOG(IC50) (converted)): 100 µM
- IC50 (MCF-7 (breast); MCF7, read-out: IC-50 MEAN): 98.1 µM
- IC90 (OVCAR-3 (ovarian)): 270 µM
- IC50 (OVCAR-3 (ovarian); [12]): 100 µM
- IC50 (OVCAR-3 (ovarian); read-out: IC-50 MEAN): 96.6 µM
- IC90 (RPMI-7951 (melanoma)): 178 µM
- IC50 (RPMI-7951 (melanoma); RPMI-79, logarithm of the concentration inhibiting growth by 50%, read-out: LOG(IC50) (converted)): 79.4 µM
- IC50 (RPMI-7951 (melanoma); read-out: IC-50 MEAN): 76.7 µM
- IC90 (MOLT-4 (LEU)): 244 µM
- IC50 ([11]; H23, logarithm of the concentration inhibiting growth by 50%, read-out: LOG(IC50) (converted)): 50.1 µM
- IC90 ([11]; Homo sapiens, NCI-H23): 197 µM
- IC50 ([11]; Homo sapiens, NCI-H23, read-out: IC-50 MEAN): 52.7 µM
